# Reference: patent US11168095B2, “ASK1 inhibiting agents” (BIOGEN MA INC., priority 2017, dated 2021)
# Like-named read-outs stand apart in the source and are kept apart here.
# Key:
# ASK1/MAP3K5 = ASK1/MAP3K5 (Homo sapiens (Human), UniProt Q99683); assay: ASK1/MAP3K5 assay by Reaction Biology Corp.; type: biochemical; settings: 20 μM myelin basic protein (MBP), 10 μM ATP
# Protocol: ASK1/MAP3K5 was used as the protein kinase and 20 μM of myelin basic protein (MBP) and 10 μM ATP were used as the substrate.
# [1] = molecular target: ASK1 T838 auto phosphorylation in HEK-293T cells (Homo sapiens (Human), UniProt Q99683); assay: ASK1 (AUTO PHOS T838) assay, MSD format; type: cell-based
# GST-hASK1 = GST-hASK1 (Homo sapiens (Human), UniProt Q99683); assay: ASK1 TR-FRET assay; type: biochemical; settings: 5 nM GST-hASK1, 100 μM ATP, 2 μM STK Substrate 3
# Protocol: The protein kinase activity of 5 nM GST-hASK1(Life Technologies PV4011) was assayed with 100 μM ATP and 2 μM of HTRF biotinylated STK Substrate 3 (CisBio Kit 62ST3PEJ), at ambient temperature in 25 mM Hepes, pH 7.5, 50 mM NaCl, 10 mM MgCl2, 0.02% Brij-35, 1 mM DTT, and 1% DMSO.
# After a 10 minute pre-incubation, ASK1 protein kinase activity was initiated by addition of 10 μL of 300 μM ATP.
# [2] = HEK 293T cells transfected with ASK1-V5 full length plasmid, compounds 1 hr at 37° C., read-out: IC50
# Sequence of GST-hASK1 (Q99683 649-946): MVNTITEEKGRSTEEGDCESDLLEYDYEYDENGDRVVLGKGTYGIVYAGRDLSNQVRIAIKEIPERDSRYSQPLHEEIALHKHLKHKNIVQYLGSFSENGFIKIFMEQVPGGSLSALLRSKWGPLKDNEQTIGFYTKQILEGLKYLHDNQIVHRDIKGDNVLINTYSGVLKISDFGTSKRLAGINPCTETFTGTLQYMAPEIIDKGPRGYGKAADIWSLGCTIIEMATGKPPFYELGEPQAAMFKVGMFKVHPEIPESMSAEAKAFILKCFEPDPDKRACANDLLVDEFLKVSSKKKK
# Sequence of ASK1/MAP3K5 (Q99683 whole entry): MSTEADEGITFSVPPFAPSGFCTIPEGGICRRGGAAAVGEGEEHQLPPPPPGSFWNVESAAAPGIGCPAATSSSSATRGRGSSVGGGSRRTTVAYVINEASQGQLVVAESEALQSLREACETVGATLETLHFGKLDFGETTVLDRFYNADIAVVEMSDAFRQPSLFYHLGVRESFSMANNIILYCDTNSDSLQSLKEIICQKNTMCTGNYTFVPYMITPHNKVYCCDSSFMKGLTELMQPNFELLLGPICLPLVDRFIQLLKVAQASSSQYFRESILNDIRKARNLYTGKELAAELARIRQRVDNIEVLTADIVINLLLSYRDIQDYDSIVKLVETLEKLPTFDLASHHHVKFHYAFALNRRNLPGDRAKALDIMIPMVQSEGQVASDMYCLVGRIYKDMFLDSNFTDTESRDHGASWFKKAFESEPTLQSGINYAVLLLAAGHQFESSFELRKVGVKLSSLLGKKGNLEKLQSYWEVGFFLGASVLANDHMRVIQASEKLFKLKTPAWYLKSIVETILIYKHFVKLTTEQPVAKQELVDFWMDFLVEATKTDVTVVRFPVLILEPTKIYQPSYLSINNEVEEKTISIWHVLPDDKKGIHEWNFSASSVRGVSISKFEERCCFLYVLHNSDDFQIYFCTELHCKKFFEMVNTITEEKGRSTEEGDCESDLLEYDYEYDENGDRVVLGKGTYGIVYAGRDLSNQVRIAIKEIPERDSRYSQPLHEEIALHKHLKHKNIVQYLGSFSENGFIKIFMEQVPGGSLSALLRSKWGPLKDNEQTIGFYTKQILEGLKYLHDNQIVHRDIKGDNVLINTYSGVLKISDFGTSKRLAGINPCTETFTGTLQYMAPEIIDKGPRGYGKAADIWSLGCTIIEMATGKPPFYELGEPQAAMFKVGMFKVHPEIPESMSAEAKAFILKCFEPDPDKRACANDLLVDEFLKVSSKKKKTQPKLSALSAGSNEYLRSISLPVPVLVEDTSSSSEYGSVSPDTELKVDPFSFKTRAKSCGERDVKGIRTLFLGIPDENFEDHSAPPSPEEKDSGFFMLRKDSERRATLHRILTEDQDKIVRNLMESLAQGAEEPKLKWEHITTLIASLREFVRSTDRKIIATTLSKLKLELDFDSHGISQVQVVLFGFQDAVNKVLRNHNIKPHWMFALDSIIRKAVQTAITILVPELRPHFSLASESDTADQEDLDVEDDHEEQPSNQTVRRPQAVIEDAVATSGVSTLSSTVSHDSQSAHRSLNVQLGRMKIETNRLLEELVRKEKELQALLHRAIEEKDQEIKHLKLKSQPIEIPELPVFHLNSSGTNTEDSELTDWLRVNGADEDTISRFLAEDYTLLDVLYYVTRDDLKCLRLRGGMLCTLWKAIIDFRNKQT
# Sequence of ASK1 T838 auto phosphorylation in HEK-293T cells (Q99683 whole entry): as above
Compound,IC50 (ASK1/MAP3K5),"IC50 [1, 2]",IC50 (GST-hASK1),IC50 (GST-hASK1; class given in words),IC50 [1],IC50 ([1]; read-out: IC50)
"O=C1Nc2cccc(n2)-c2nncn2CCCCOc2ccc(C3CCOC3)cc21 (racemic) [Example 15, rac-5^5-(Tetrahydrofuran-3-yl)-1^4H-6-oxa-3-aza-2(2,6)-pyridina-1(3,4)-triazola-5(1,2)-benzenacyclodecaphan-4-one]",< 100 nM,< 1000 nM,< 100 nM,–,–,–
"O=C1Nc2cccc(n2)-c2nncn2CCCCOc2ccc(N3C4CCC3COC4)cc21 [Example 5, 5^5-(3-Oxa-8-azabicyclo[3.2.1]octan-8-yl)-1^4H-6-oxa-3-aza-2(2,6)-pyridina-1(3,4)-triazola-5(1,2)-benzenacyclodecaphan-4-one]",< 100 nM,< 1000 nM,< 100 nM,–,–,–
"O=C1Nc2cccc(n2)-c2nncn2CCCCOc2ccc(N3CC4CC(C3)O4)cc21 [Example 6, 5^5-(6-Oxa-3-azabicyclo[3.1.1]heptan-3-yl)-1^4H-6-oxa-3-aza-2(2,6)-pyridina-1(3,4)-triazola-5(1,2)-benzenacyclodecaphan-4-one]",< 100 nM,< 1000 nM,< 100 nM,–,–,–
"O=C1Nc2cccc(n2)-c2nncn2CCCCOc2ccc(N3C4COCC3C4)cc21 [Example 8, 5^5-(3-Oxa-6-azabicyclo[3.1.1]heptan-6-yl)-1^4H-6-oxa-3-aza-2(2,6)-pyridina-1(3,4)-triazola-5(1,2)-benzenacyclodecaphan-4-one]",< 100 nM,1000 to 10000 nM,< 100 nM,–,–,–
"O=C1Nc2cccc(n2)-c2nncn2CCCCOc2ccc(N3CC(F)(F)C3)cc21 [Example 9, 5^5-(3,3-Difluoroazetidin-1-yl)-1^4H-6-oxa-3-aza-2(2,6)-pyridina-1(3,4)-triazola-5(1,2)-benzenacyclodecaphan-4-one]",< 100 nM,< 1000 nM,< 100 nM,–,–,–
"O=C1Nc2cccc(n2)-c2nncn2CCCCOc2ccc(N3CCC(F)(F)C3)cc21 [Example 10, 5^5-(3,3-Difluoropyrrolidin-1-yl)-1^4H-6-oxa-3-aza-2(2,6)-pyridina-1(3,4)-triazola-5(1,2)-benzenacyclodecaphan-4-one]",< 100 nM,< 1000 nM,< 100 nM,–,–,–
"O=C1Nc2cccc(n2)-c2nncn2CCCCOc2ccc(N3CCCC(F)(F)C3)cc21 [Example 11, 5^5-(3,3-Difluoropiperidin-1-yl)-1^4H-6-oxa-3-aza-2(2,6)-pyridina-1(3,4)-triazola-5(1,2)-benzenacyclodecaphan-4-one]",< 100 nM,< 1000 nM,< 100 nM,–,–,–
"O=C1Nc2cccc(n2)-c2nncn2CCCCOc2ccc(N3CCC(F)(F)CC3)cc21 [Example 12, 5^5-(4,4-Difluoropiperidin-1-yl)-1^4H-6-oxa-3-aza-2(2,6)-pyridina-1(3,4)-triazola-5(1,2)-benzenacyclodecaphan-4-one]",< 100 nM,< 1000 nM,< 100 nM,–,–,–
"O=C1Nc2cccc(n2)-c2nncn2CCCCOc2ccc(C3CCOCC3)cc21 [Example 17, 5^5-(Tetrahydro-2H-pyran-4-yl)-1^4H-6-oxa-3-aza-2(2,6)-pyridina-1(3,4)-triazola-5(1,2)-benzenacyclodecaphan-4-one]",< 100 nM,< 1000 nM,< 100 nM,–,–,–
"Cc1ccc2c(c1)C(=O)Nc1cccc(n1)-c1nncn1CCCCO2 [Example 18, 5^5-Methyl-1^4H-6-oxa-3-aza-2(2,6)-pyridina-1(3,4)-triazola-5(1,2)-benzenacyclodecaphan-4-one]",< 100 nM,< 1000 nM,< 100 nM,–,–,–
"N#Cc1ccc2c(c1)C(=O)Nc1cccc(n1)-c1nncn1CCCCO2 [Example 20, 4-Oxo-1^4H-6-oxa-3-aza-2(2,6)-pyridina-1(3,4)-triazola-5(1,2)-benzenacyclodecaphane-5^5-carbonitrile]",< 100 nM,< 1000 nM,< 100 nM,–,–,–
"O=C1Nc2cccc(n2)-c2nncn2CCCCOc2ccc(-n3cnc(C4CC4)c3)cc21 [Example 22, 5^5-(4-Cyclopropyl-1H-imidazol-1-yl)-1^4H-6-oxa-3-aza-2(2,6)-pyridina-1(3,4)-triazola-5(1,2)-benzenacyclodecaphan-4-one]",< 100 nM,< 1000 nM,< 100 nM,–,–,–
"Cn1nccc1-c1ccc2c(c1)C(=O)Nc1cccc(n1)-c1nncn1CCCCO2 [Example 23, 5^5-(1-Methyl-1H-pyrazol-5-yl)-1^4H-6-oxa-3-aza-2(2,6)-pyridina-1(3,4)-triazola-5(1,2)-benzenacyclodecaphan-4-one]",< 100 nM,< 1000 nM,< 100 nM,–,–,–
"O=C1Nc2cccc(n2)-c2nncn2C/C=C\COc2ccc(Br)cc21 [Example 161, (Z)-5^5-Bromo-1^4H-6-oxa-3-aza-2(2,6)-pyridina-1(3,4)-triazola-5(1,2)-benzenacyclodecaphan-8-en-4-one]",–,–,< 100 nM,–,1000 to 10000 nM,–
"O=C1Nc2cccc(n2)-c2nncn2C/C=C/COc2ccc(Br)cc21 [Example 162, (E)-5^5-Bromo-1^4H-6-oxa-3-aza-2(2,6)-pyridina-1(3,4)-triazola-5(1,2)-benzenacyclodecaphan-8-en-4-one]",–,1000 to 10000 nM,< 100 nM,–,–,–
"O=C1Nc2cccc(n2)-c2nncn2C/C=C\COc2ccc(N3CCOCC3)cc21 [Example 169, (Z)-5^5-Morpholino-1^4H-6-oxa-3-aza-2(2,6)-pyridina-1(3,4)-triazola-5(1,2)-benzenacyclodecaphan-8-en-4-one]",–,–,< 100 nM,–,–,< 1000 nM

# Second part, led by results:
IC50 (ASK1/MAP3K5),"IC50 [1, 2]",IC50 (GST-hASK1),IC50 (GST-hASK1; class given in words),Compound,IC50 [1],IC50 ([1]; read-out: IC50)
< 100 nM,< 1000 nM,< 100 nM,–,"O=C1Nc2cccc(n2)-c2nncn2CCCCOc2ccc(-c3cccnc3)cc21 [Example 26, 5^5-(Pyridin-3-yl)-1^4H-6-oxa-3-aza-2(2,6)-pyridina-1(3,4)-triazola-5(1,2)-benzenacyclodecaphan-4-one]",–,–
< 100 nM,< 1000 nM,< 100 nM,–,"O=C1Nc2cccc(n2)-c2nncn2CCCCOc2ccc(-c3ccncc3)cc21 [Example 27, 5^5-(Pyridin-4-yl)-1^4H-6-oxa-3-aza-2(2,6)-pyridina-1(3,4)-triazola-5(1,2)-benzenacyclodecaphan-4-one]",–,–
< 100 nM,< 1000 nM,< 100 nM,–,"Cn1cncc1-c1ccc2c(c1)C(=O)Nc1cccc(n1)-c1nncn1CCCCO2 [Example 29, 5^5-(1-Methyl-1H-imidazol-5-yl)-1^4H-6-oxa-3-aza-2(2,6)-pyridina-1(3,4)-triazola-5(1,2)-benzenacyclodecaphan-4-one]",–,–
< 100 nM,< 1000 nM,< 100 nM,–,"Cc1nn(C)cc1-c1ccc2c(c1)C(=O)Nc1cccc(n1)-c1nncn1CCCCO2 [Example 32, 5^5-(1,3-Dimethyl-1H-pyrazol-4-yl)-1^4H-6-oxa-3-aza-2(2,6)-pyridina-1(3,4)-triazola-5(1,2)-benzenacyclodecaphan-4-one]",–,–
< 100 nM,< 1000 nM,< 100 nM,–,"Cc1nn(C)c(C)c1-c1ccc2c(c1)C(=O)Nc1cccc(n1)-c1nncn1CCCCO2 [Example 33, 5^5-(1,3,5-Trimethyl-1H-pyrazol-4-yl)-1^4H-6-oxa-3-aza-2(2,6)-pyridina-1(3,4)-triazola-5(1,2)-benzenacyclodecaphan-4-one]",–,–
< 100 nM,< 1000 nM,< 100 nM,–,"Cc1cc(-c2ccc3c(c2)C(=O)Nc2cccc(n2)-c2nncn2CCCCO3)n(C)n1 [Example 34, 5^5-(1,3-Dimethyl-1H-pyrazol-5-yl)-1^4H-6-oxa-3-aza-2(2,6)-pyridina-1(3,4)-triazola-5(1,2)-benzenacyclodecaphan-4-one]",–,–
< 100 nM,< 1000 nM,< 100 nM,–,"Cc1ncn(-c2ccc3c(c2)C(=O)Nc2cccc(n2)-c2nncn2CCCCO3)c1C [Example 42, 5^5-(4,5-Dimethyl-1H-imidazol-1-yl)-1^4H-6-oxa-3-aza-2(2,6)-pyridina-1(3,4)-triazola-5(1,2)-benzenacyclodecaphan-4-one]",–,–
< 100 nM,< 1000 nM,< 100 nM,–,"O=C1Nc2cccc(n2)-c2nncn2CCCCOc2ccc(-n3cccn3)cc21 [Example 44, 5^5-(1H-Pyrazol-1-yl)-1^4H-6-oxa-3-aza-2(2,6)-pyridina-1(3,4)-triazola-5(1,2)-benzenacyclodecaphan-4-one]",–,–
–,> 10000 nM,100 to 1000 nM,–,"O=C1Nc2cccc(n2)-c2nncn2C/C=C/COc2c(Br)cccc21 [Example 163, (E)-5^3-Bromo-1^4H-6-oxa-3-aza-2(2,6)-pyridina-1(3,4)-triazola-5(1,2)-benzenacyclodecaphan-8-en-4-one]",–,–
–,> 10000 nM,–,≥ 10000 nM,"O=C1Nc2cccc(n2)-c2nncn2C/C=C\COc2c(Br)cccc21 [Example 164, (Z)-5^3-Bromo-1^4H-6-oxa-3-aza-2(2,6)-pyridina-1(3,4)-triazola-5(1,2)-benzenacyclodecaphan-8-en-4-one]",–,–
–,> 10000 nM,1000 to 10000 nM,–,"O=C1Nc2cccc(n2)-c2nncn2C/C=C/COc2c1cccc2C(F)(F)F [Example 166, (E)-5^3-(Trifluoromethyl)-1^4H-6-oxa-3-aza-2(2,6)-pyridina-1(3,4)-triazola-5(1,2)-benzenacyclodecaphan-8-en-4-one]",–,–
–,> 10000 nM,–,≥ 10000 nM,"O=C1Nc2cccc(n2)-c2nncn2C/C=C\COc2c1cccc2C(F)(F)F [Example 167, (Z)-5^3-(Trifluoromethyl)-1^4H-6-oxa-3-aza-2(2,6)-pyridina-1(3,4)-triazola-5(1,2)-benzenacyclodecaphan-8-en-4-one]",–,–
